Source: patent US7300946B2, “N-(substituted arylmethyl)-4-(disubstituted methyl) piperidines and pyridines” (Bayer CropScience AG, priority 2002, dated 2007)

Each molecule was assayed on tobacco budworm (Heliothis virescens [Fabricius]) (assay: surface-treated diet test against the tobacco budworm). Conditions: tobacco budworm second instar larvae; surface-treated diet; 0.25 millimoles of candidate insecticide on the surface of the diet; five-day exposure; compared to total number of insects infested.
Format: in vivo
Outline: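 Wheat germ artificial diet surface-treated with 40 µL of 50 mM DMSO stock diluted 1:7 in 1:1 water/acetone (0.25 millimolar on diet), or sub-multiples for rate tests. One second-instar larva per well, 25° C, 60% RH, 5 days; percent weight inhibition vs DMSO controls and percent mortality.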

**Q.** With `Cn1nnc(-c2ccc(CN3CCC(C(NC(=O)c4ccc(F)cc4)c4ccc(OC(F)(F)F)cc4)CC3)cc2)n1` (centres unmarked) [Compound 328] as the molecule, how does the “Percent Mortality” value read?
**A.** 0%

**Q.** `Cn1nnc(-c2ccc(CN3CCC(C(NCc4ccc(Br)cc4)c4ccc(OC(F)(F)F)cc4)CC3)cc2)n1` (centres unmarked) [Compound 312] was tested. Which “Percent Mortality” value did it give?
**A.** 100%

**Q.** For `Cn1nnc(-c2ccc(CN3CCC(C(Oc4ccc(Cl)cn4)c4ccc(C(F)(F)F)cc4)CC3)cc2)n1` (centres unmarked) [Compound 435], which “Percent Mortality” value is on record?
**A.** 100%

**Q.** `[O-][N+]1(Cc2ccc(Oc3ccccn3)cc2)CCC(=C(c2ccc(C(F)(F)F)cc2)c2ccc(C(F)(F)F)cc2)CC1` (centres unmarked) [Compound 106] was tested. Which “Percent Mortality” value did it give?
**A.** 100%

**Q.** For `CCOC(=O)Nc1ccc(CN2CCC(C(OC(=O)Nc3cc(F)cc(F)c3)c3ccc(C(F)(F)F)cc3)CC2)cc1` (centres unmarked) [Compound 499], which “Percent Mortality” value is on record?
**A.** 100%

**Q.** For `Cn1nnc(-c2ccc(CN3CCC(C(NC(=O)Nc4ccc(Cl)cc4)c4ccc(OC(F)(F)F)cc4)CC3)cc2)n1` (centres unmarked) [Compound 336], which “Percent Mortality” value is on record?
**A.** 100%

**Q.** How did the “Percent Mortality” value turn out when `CCON=Cc1ccc(CN2CCC(C(OC(=O)Nc3cccc(C(F)(F)F)c3)c3ccc(C(F)(F)F)cc3)CC2)cc1` (centres unmarked) [Compound 204] was run?
**A.** 100%

**Q.** How did the “Percent Mortality” value turn out when `O=C(Nc1ccc(C(F)(F)F)cc1)OC(c1ccc(Cl)cc1)C1CCN(Cc2ccc(Oc3ccccn3)cc2)CC1` (centres unmarked) [Compound 635] was run?
**A.** 100%

**Q.** `CCn1nnc(-c2ccc(CN3CCC(C(OC(=O)Nc4ccc(C(F)(F)F)cc4)c4ccccc4)CC3)cc2)n1` (centres unmarked) [Compound 565] was tested. Which “Percent Mortality” value did it give?
**A.** 100%

**Q.** With `O=C(Nc1ccc(F)cc1)OC(c1ccc(OC(F)(F)F)cc1)C1CCN(Cc2ccc(Oc3ccccn3)cc2)CC1` (centres unmarked) [Compound 236] as the molecule, how does the “Percent Mortality” value read?
**A.** 100%

**Q.** How did the “Percent Mortality” value turn out when `Cn1nnc(-c2ccc(CN3CCC(C(NCc4cccc(Cl)c4)c4ccc(OC(F)(F)F)cc4)CC3)cc2)n1` (centres unmarked) [Compound 310] was run?
**A.** 100%

**Q.** For `COc1ccc(CN2CCC(=C(c3ccc(OC(F)(F)F)cc3)c3ccc(OC(F)(F)F)cc3)CC2)cc1` [Compound 42], which “Percent Mortality” value is on record?
**A.** 100%

**Q.** With `CCCOc1ccc(CN2CCC(C(OC(=O)Nc3ccc(C(F)(F)F)cc3)c3cccc(C(F)(F)F)c3)CC2)cc1` (centres unmarked) [Compound 489] as the molecule, how does the “Percent Mortality” value read?
**A.** 100%

**Q.** `CCn1nnc(-c2ccc(CN3CCC(C(OC(=O)Nc4cc(F)cc(F)c4)c4ccc(C)cc4)CC3)cc2)n1` (centres unmarked) [Compound 598] was tested. Which “Percent Mortality” value did it give?
**A.** 100%

**Q.** Which “Percent Mortality” value does the source give for `O=C(Nc1cc(F)cc(F)c1)OC(c1ccc(C(F)(F)F)cc1)C1CCN(Cc2ccc(-c3ccccc3)cc2)CC1` (centres unmarked) [Compound 544] here?
**A.** 100%

**Q.** For `CCn1nnc(-c2ccc(CN3CCC(C(OC(=O)Nc4ccc(Cl)cc4Cl)c4ccc(C(F)(F)F)cc4)CC3)cc2)n1` (centres unmarked) [Compound 280], which “Percent Mortality” value is on record?
**A.** 100%

**Q.** How did the “Percent Mortality” value turn out when `CCn1nnc(-c2ccc(CN3CCC(C(OC(=O)Nc4ccc(Cl)c(Cl)c4)c4cc(Cl)cc(Cl)c4)CC3)cc2)n1` (centres unmarked) [Compound 578] was run?
**A.** 100%

**Q.** For `Cn1nnc(-c2ccc(CN3CCC(C(NC(=O)Oc4ccc([N+](=O)[O-])cc4)c4ccc(OC(F)(F)F)cc4)CC3)cc2)n1` (centres unmarked) [Compound 358], which “Percent Mortality” value is on record?
**A.** 83%

**Q.** For `O=C(Nc1cc(F)cc(F)c1)OC(c1ccc(C(F)(F)F)cc1)C1CC[N+]([O-])(Cc2ccc(Oc3ccccn3)cc2)CC1` (centres unmarked) [Compound 397], which “Percent Mortality” value is on record?
**A.** 100%

**Q.** Which “Percent Mortality” value does the source give for `O=C(Nc1ccc(C(F)(F)F)nc1)OC(c1ccc(C(F)(F)F)cc1)C1CCN(Cc2ccc(Oc3ccccn3)cc2)CC1` (centres unmarked) [Compound 448] here?
**A.** 100%

**Q.** With `O=C(Nc1c(F)c(F)c(F)c(F)c1F)OC(c1ccc(C(F)(F)F)cc1)C1CCN(Cc2ccc(Oc3ccccn3)cc2)CC1` (centres unmarked) [Compound 243] as the molecule, how does the “Percent Mortality” value read?
**A.** 100%

**Q.** Which “Percent Mortality” value does the source give for `CCn1nnc(-c2ccc(CN3CCC(C(OC(=O)Nc4ccc(F)c(F)c4)c4ccc(Oc5ccccc5)cc4)CC3)cc2)n1` (centres unmarked) [Compound 618] here?
**A.** 100%

**Q.** With `CCCNC(=O)OC(c1ccc(C(F)(F)F)cc1)C1CCN(Cc2ccc(Oc3ccccn3)cc2)CC1` (centres unmarked) [Compound 427] as the molecule, how does the “Percent Mortality” value read?
**A.** 33%

Same assay, conditions: tobacco budworm second instar larvae; surface-treated diet; 0.25 millimoles of candidate insecticide on the surface of the diet; five-day exposure; inhibition of insect weight relative to untreated controls

**Q.** How did the “Percent Growth Inhibition” value turn out when `COc1cccc(NC(=O)OC(c2ccc(Cl)c(Cl)c2)C2CCN(Cc3ccc(Oc4ccccn4)cc3)CC2)c1` (centres unmarked) [Compound 648] was run?
**A.** 100%

**Q.** How did the “Percent Growth Inhibition” value turn out when `Cn1nnc(-c2ccc(CN3CCC(C(NC(=O)c4ccc(F)cc4)c4ccc(OC(F)(F)F)cc4)CC3)cc2)n1` (centres unmarked) [Compound 328] was run?
**A.** 95%

**Q.** Which “Percent Growth Inhibition” value does the source give for `Cn1nnc(-c2ccc(CN3CCC(C(NCc4ccc(Br)cc4)c4ccc(OC(F)(F)F)cc4)CC3)cc2)n1` (centres unmarked) [Compound 312] here?
**A.** 100%

**Q.** Which “Percent Growth Inhibition” value does the source give for `Cn1nnc(-c2ccc(CN3CCC(C(Oc4ccc(Cl)cn4)c4ccc(C(F)(F)F)cc4)CC3)cc2)n1` (centres unmarked) [Compound 435] here?
**A.** 100%

**Q.** `[O-][N+]1(Cc2ccc(Oc3ccccn3)cc2)CCC(=C(c2ccc(C(F)(F)F)cc2)c2ccc(C(F)(F)F)cc2)CC1` (centres unmarked) [Compound 106] was tested. Which “Percent Growth Inhibition” value did it give?
**A.** 100%

**Q.** `CCOC(=O)Nc1ccc(CN2CCC(C(OC(=O)Nc3cc(F)cc(F)c3)c3ccc(C(F)(F)F)cc3)CC2)cc1` (centres unmarked) [Compound 499] was tested. Which “Percent Growth Inhibition” value did it give?
**A.** 100%

**Q.** How did the “Percent Growth Inhibition” value turn out when `Cn1nnc(-c2ccc(CN3CCC(C(NC(=O)Nc4ccc(Cl)cc4)c4ccc(OC(F)(F)F)cc4)CC3)cc2)n1` (centres unmarked) [Compound 336] was run?
**A.** 100%

**Q.** How did the “Percent Growth Inhibition” value turn out when `CCON=Cc1ccc(CN2CCC(C(OC(=O)Nc3cccc(C(F)(F)F)c3)c3ccc(C(F)(F)F)cc3)CC2)cc1` (centres unmarked) [Compound 204] was run?
**A.** 100%

**Q.** With `O=C(Nc1ccc(C(F)(F)F)cc1)OC(c1ccc(Cl)cc1)C1CCN(Cc2ccc(Oc3ccccn3)cc2)CC1` (centres unmarked) [Compound 635] as the molecule, how does the “Percent Growth Inhibition” value read?
**A.** 100%

**Q.** How did the “Percent Growth Inhibition” value turn out when `CCn1nnc(-c2ccc(CN3CCC(C(OC(=O)Nc4ccc(C(F)(F)F)cc4)c4ccccc4)CC3)cc2)n1` (centres unmarked) [Compound 565] was run?
**A.** 100%

**Q.** With `O=C(Nc1ccc(F)cc1)OC(c1ccc(OC(F)(F)F)cc1)C1CCN(Cc2ccc(Oc3ccccn3)cc2)CC1` (centres unmarked) [Compound 236] as the molecule, how does the “Percent Growth Inhibition” value read?
**A.** 100%

**Q.** For `Cn1nnc(-c2ccc(CN3CCC(C(NCc4cccc(Cl)c4)c4ccc(OC(F)(F)F)cc4)CC3)cc2)n1` (centres unmarked) [Compound 310], which “Percent Growth Inhibition” value is on record?
**A.** 100%

**Q.** `COc1ccc(CN2CCC(=C(c3ccc(OC(F)(F)F)cc3)c3ccc(OC(F)(F)F)cc3)CC2)cc1` [Compound 42] was tested. Which “Percent Growth Inhibition” value did it give?
**A.** 100%

**Q.** For `CCCOc1ccc(CN2CCC(C(OC(=O)Nc3ccc(C(F)(F)F)cc3)c3cccc(C(F)(F)F)c3)CC2)cc1` (centres unmarked) [Compound 489], which “Percent Growth Inhibition” value is on record?
**A.** 100%

**Q.** Which “Percent Growth Inhibition” value does the source give for `CCn1nnc(-c2ccc(CN3CCC(C(OC(=O)Nc4cc(F)cc(F)c4)c4ccc(C)cc4)CC3)cc2)n1` (centres unmarked) [Compound 598] here?
**A.** 100%

**Q.** For `O=C(Nc1cc(F)cc(F)c1)OC(c1ccc(C(F)(F)F)cc1)C1CCN(Cc2ccc(-c3ccccc3)cc2)CC1` (centres unmarked) [Compound 544], which “Percent Growth Inhibition” value is on record?
**A.** 100%

**Q.** `CCn1nnc(-c2ccc(CN3CCC(C(OC(=O)Nc4ccc(Cl)cc4Cl)c4ccc(C(F)(F)F)cc4)CC3)cc2)n1` (centres unmarked) [Compound 280] was tested. Which “Percent Growth Inhibition” value did it give?
**A.** 100%

**Q.** How did the “Percent Growth Inhibition” value turn out when `CCn1nnc(-c2ccc(CN3CCC(C(OC(=O)Nc4ccc(Cl)c(Cl)c4)c4cc(Cl)cc(Cl)c4)CC3)cc2)n1` (centres unmarked) [Compound 578] was run?
**A.** 100%

**Q.** For `Cn1nnc(-c2ccc(CN3CCC(C(NC(=O)Oc4ccc([N+](=O)[O-])cc4)c4ccc(OC(F)(F)F)cc4)CC3)cc2)n1` (centres unmarked) [Compound 358], which “Percent Growth Inhibition” value is on record?
**A.** 99%

**Q.** `O=C(Nc1cc(F)cc(F)c1)OC(c1ccc(C(F)(F)F)cc1)C1CC[N+]([O-])(Cc2ccc(Oc3ccccn3)cc2)CC1` (centres unmarked) [Compound 397] was tested. Which “Percent Growth Inhibition” value did it give?
**A.** 100%

**Q.** For `O=C(Nc1ccc(C(F)(F)F)nc1)OC(c1ccc(C(F)(F)F)cc1)C1CCN(Cc2ccc(Oc3ccccn3)cc2)CC1` (centres unmarked) [Compound 448], which “Percent Growth Inhibition” value is on record?
**A.** 100%

**Q.** `O=C(Nc1c(F)c(F)c(F)c(F)c1F)OC(c1ccc(C(F)(F)F)cc1)C1CCN(Cc2ccc(Oc3ccccn3)cc2)CC1` (centres unmarked) [Compound 243] was tested. Which “Percent Growth Inhibition” value did it give?
**A.** 100%

**Q.** With `CCn1nnc(-c2ccc(CN3CCC(C(OC(=O)Nc4ccc(F)c(F)c4)c4ccc(Oc5ccccc5)cc4)CC3)cc2)n1` (centres unmarked) [Compound 618] as the molecule, how does the “Percent Growth Inhibition” value read?
**A.** 100%

**Q.** How did the “Percent Growth Inhibition” value turn out when `CCCNC(=O)OC(c1ccc(C(F)(F)F)cc1)C1CCN(Cc2ccc(Oc3ccccn3)cc2)CC1` (centres unmarked) [Compound 427] was run?
**A.** 100%
